The text below walks through data of patent publication US6903052B2, “Nematicidal compositions and methods” (Divergence, Inc., priority 2002, dated 2005).

In series [1] the test system is C. elegans. As to the kind of experiment: Nematicidal activity of emulsions made with Tween-20 (replacing Igepal CO 630) against C. elegans. The note with it: Tween-20 emulsion. The format is cell-based, Caenorhabditis elegans. Here is the method: Some nematodes assayed as described in Example 9 lacked tolerance to emulsions made with the surfactant Igepal CO 630. For this reason some assays were repeated with Tween-20-based emulsions.
(§1) Briefly, 1 ml 1% stock solution emulsions were prepared by mixing 10 μl of fatty acid methyl ester with 20 μl of the surfactant Tween-20 in a 1.5 ml eppendorf tube. After careful mixing of fatty acid and Tween-20, 850 μl of ddH20 was added and mixed by gentle pipetting until a homogeneous solution was obtained. Finally, 120 μl of pure isopropanol was added and mixed by gentle pipetting. This stock solution was then used to produce various fatty acid methyl ester dilution emulsions in 24-well plate assays.

The subject of series [2] is M. javanica. As to the kind of experiment: Nematicidal activity of fatty acid methyl ester emulsions against root knot nematode J2 larvae (Example 6). The note with it: 0.1% emulsion; 48 hours incubation, counted about 24 hours after transfer to plates. Type of series: cell-based, Meloidogyne javanica. On the procedure:
as §1, with “Fatty acid methyl ester emulsions were prepared following the teachings of Kim et al (U.S. Pat. No. 5,698,592). Briefly,” for “Briefly,”, “Igepal CO 630” for “Tween-20”, “Igepal CO 630,” for “Tween-20,”
Meloidogyne incognita and javanica were prepared from tomato roots. The roots were bleached and the debris was separated from the J2 larvae and eggs by filtration followed by sucrose density gradient centrifugation. Eggs were hatched over 4 days at 15° C. and the J2 larvae were collected by passage though a filter, followed by centrifugation.
Nematodes and emulsions were incubated with shaking at room temperature for 48 hours. The contents of each well were transferred to a small spot on individual NGM plates lacking bacteria. About 24 hours after the transfer to plates, worms on and off the inoculation spot were counted as not viable or viable, respectively. Worms were considered viable if they had crawled away from the inoculation spot, or if they were moving. Worms were considered non-viable if they remained at the inoculation spot.

The structures appear in SMILES notation.

Regarding `CCCCCCC(O)C/C=C\CCCCCCCC(=O)OC` (stereo not drawn) [Ricinoleic Acid (C18-methyl ester), 12-hydroxy-cis-9-octadecenoic acid methyl ester], the “% Worm Death (24 hr)” value in series [1] (0.001% solution) is given as 40%; in series [1] (0.01% solution), 100%; in series [1] (0.1% solution), 100%. In addition, in series [2], the “M. javanica (% not viable)” value amounted to 60%.
